In ChEMBL document CHEMBL1137125, “Rhodanine-3-acetic acid derivatives as inhibitors of fungal protein mannosyl transferase 1 (PMT1)” (Bioorg Med Chem Lett, 2004):
pIC50: −log10 of the molar value.

target: T1, Dolichyl-phosphate-mannose--protein mannosyltransferase 1 (Candida albicans (strain SC5314 / ATCC MYA-2876) (Yeast), UniProt O74189); assay: In vitro inhibition of Candida albicans protein mannosyl transferase 1
T1 sequence (O74189 whole entry): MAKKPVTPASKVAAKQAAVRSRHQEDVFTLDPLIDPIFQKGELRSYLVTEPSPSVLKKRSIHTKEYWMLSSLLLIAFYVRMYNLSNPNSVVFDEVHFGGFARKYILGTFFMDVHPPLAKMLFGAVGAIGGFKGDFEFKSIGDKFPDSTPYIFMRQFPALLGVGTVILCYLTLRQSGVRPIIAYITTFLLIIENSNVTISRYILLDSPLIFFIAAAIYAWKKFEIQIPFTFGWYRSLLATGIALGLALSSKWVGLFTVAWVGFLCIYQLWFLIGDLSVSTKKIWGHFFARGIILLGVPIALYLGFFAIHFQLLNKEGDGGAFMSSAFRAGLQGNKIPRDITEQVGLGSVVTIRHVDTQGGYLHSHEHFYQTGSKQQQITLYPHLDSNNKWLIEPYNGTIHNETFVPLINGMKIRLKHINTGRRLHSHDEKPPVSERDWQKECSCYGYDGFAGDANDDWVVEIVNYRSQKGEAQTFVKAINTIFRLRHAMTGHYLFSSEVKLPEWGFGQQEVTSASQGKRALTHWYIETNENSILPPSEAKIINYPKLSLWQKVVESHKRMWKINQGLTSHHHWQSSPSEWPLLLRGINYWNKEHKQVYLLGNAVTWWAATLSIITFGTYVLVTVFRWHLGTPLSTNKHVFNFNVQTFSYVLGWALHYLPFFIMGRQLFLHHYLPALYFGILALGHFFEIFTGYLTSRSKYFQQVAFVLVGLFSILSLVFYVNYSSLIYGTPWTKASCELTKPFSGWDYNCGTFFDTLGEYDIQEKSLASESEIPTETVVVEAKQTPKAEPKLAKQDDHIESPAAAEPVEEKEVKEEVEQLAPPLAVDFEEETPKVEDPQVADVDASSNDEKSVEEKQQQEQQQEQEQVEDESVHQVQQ

| Structure (SMILES) | pIC50 |
| --- | --- |
| O=C(O)CN1C(=O)/C(=C/c2ccc(OCc3ccc(F)cc3)c(OCc3ccc(F)cc3)c2)SC1=S | 5.30 |
| COc1cccc(COc2cc(/C=C3\SC(=S)N(CC(=O)O)C3=O)ccc2OCc2ccccc2)c1 | 5.12 |
| O=C(O)CN1C(=O)/C(=C/c2ccc(OCc3ccccc3)c(OCc3ccc(C(F)(F)F)cc3)c2)SC1=S | 4.96 |
| CCC(Oc1cc(/C=C2\SC(=S)N(CC(=O)O)C2=O)ccc1OCCc1ccccc1)c1ccccc1 (centres undefined) | 6.02 |
| O=C(O)CN1C(=O)/C(=C/c2ccc(OCc3ccc(F)c(F)c3)c(OCc3ccccc3)c2)SC1=S | 5.70 |
| O=C(O)CN1C(=O)/C(=C/c2ccc(OCCc3ccccc3)c(OC(C(=O)N3CCOCC3)c3ccccc3)c2)SC1=S (centres undefined) | 6.00 |
| C[C@H](COc1ccc(/C=C2\SC(=S)N(CC(=O)O)C2=O)cc1OCc1ccccc1)c1ccccc1 | 5.02 |
| CC(C)C(Oc1cc(/C=C2\SC(=S)N(CC(=O)O)C2=O)ccc1OCCc1ccccc1)c1ccccc1 (centres undefined) | 6.15 |
| O=C(O)CN1C(=O)/C(=C/c2ccc(OCc3ccccc3)c(OCc3cccnc3)c2)SC1=S | 4.37 |
| C[C@@H](COc1ccc(/C=C2\SC(=S)N(CC(=O)O)C2=O)cc1OCc1ccccc1)c1ccccc1 | 5.74 |
| C[C@H](COc1ccc(/C=C2\SC(=S)N(CC(=O)O)C2=O)cc1O[C@@H](c1ccccc1)C(F)(F)F)c1ccccc1 | 5.46 |
| O=C(O)CN1C(=O)/C(=C/c2ccc(OCc3ccccc3)c(OCc3ccc(F)c(F)c3)c2)SC1=S | 5.38 |
| O=C(O)CN1C(=O)/C(=C/c2ccc(OCCc3ccc(C(F)(F)F)cc3)c(OCc3ccccc3)c2)SC1=S | 5.40 |
| O=C(O)CN1C(=O)/C(=C/c2ccc(OCCc3ccccc3)c(OCc3ccccc3)c2)SC1=S | 5.82 |
| O=C(O)CN1C(=O)/C(=C/c2ccc(OCCc3ccc(Cl)cc3)c(OCc3ccccc3)c2)SC1=S | 5.80 |
| O=C(O)CN1C(=O)/C(=C/c2ccc(OCCc3ccc(F)cc3)c(OCc3ccccc3)c2)SC1=S | 5.92 |
| CS(=O)(=O)c1ccc(COc2ccc(/C=C3\SC(=S)N(CC(=O)O)C3=O)cc2OCc2ccccc2)cc1 | 5.49 |
| O=C(O)CN1C(=O)/C(=C/c2ccc(OCc3ccccc3)c(OCc3cccc(C(F)(F)F)c3)c2)SC1=S | 4.96 |
| O=C(O)CN1C(=O)/C(=C/c2ccc(OCc3ccccc3)c(OCc3ccc(Cl)cc3)c2)SC1=S | 5.15 |
| C[C@H](Oc1cc(/C=C2\SC(=S)N(CC(=O)O)C2=O)ccc1OC[C@H](C)c1ccccc1)c1ccccc1 | 6.30 |
| O=C(O)CN1C(=O)/C(=C/c2ccc(OCc3ccccc3)cc2)SC1=S | 4.26 |
| NC(=O)C(Oc1cc(/C=C2\SC(=S)N(CC(=O)O)C2=O)ccc1OCCc1ccccc1)c1ccccc1 (centres undefined) | 6.46 |
| O=C(O)CN1C(=O)/C(=C/c2ccc(OCc3c(F)cccc3F)c(OCc3c(F)cccc3F)c2)SC1=S | 4.70 |
| CC[C@@H](COc1ccc(/C=C2\SC(=S)N(CC(=O)O)C2=O)cc1O[C@H](c1ccccc1)C(F)(F)F)c1ccccc1 | 6.46 |
| C[C@@H](COc1ccc(/C=C2\SC(=S)N(CC(=O)O)C2=O)cc1O[C@H](c1ccccc1)C(F)(F)F)c1ccccc1 | 6.40 |

system: Candida albicans; assay: In vitro inhibition of Candida albicans G418-sensitive proliferation; assay type: functional, organism-based

| Structure (SMILES) | pIC50 |
| --- | --- |
| O=C(O)CN1C(=O)/C(=C/c2ccc(OCc3ccc(F)cc3)c(OCc3ccc(F)cc3)c2)SC1=S | 5.28 |
| COc1cccc(COc2cc(/C=C3\SC(=S)N(CC(=O)O)C3=O)ccc2OCc2ccccc2)c1 | < 4.00 |
| O=C(O)CN1C(=O)/C(=C/c2ccc(OCc3ccccc3)c(OCc3ccc(C(F)(F)F)cc3)c2)SC1=S | < 4.00 |
| CCC(Oc1cc(/C=C2\SC(=S)N(CC(=O)O)C2=O)ccc1OCCc1ccccc1)c1ccccc1 (centres undefined) | 7.70 |
| O=C(O)CN1C(=O)/C(=C/c2ccc(OCc3ccc(F)c(F)c3)c(OCc3ccccc3)c2)SC1=S | 5.82 |
| O=C(O)CN1C(=O)/C(=C/c2ccc(OCCc3ccccc3)c(OC(C(=O)N3CCOCC3)c3ccccc3)c2)SC1=S (centres undefined) | 4.37 |
| C[C@H](COc1ccc(/C=C2\SC(=S)N(CC(=O)O)C2=O)cc1OCc1ccccc1)c1ccccc1 | 6.46 |
| CC(C)C(Oc1cc(/C=C2\SC(=S)N(CC(=O)O)C2=O)ccc1OCCc1ccccc1)c1ccccc1 (centres undefined) | 7.52 |
| O=C(O)CN1C(=O)/C(=C/c2ccc(OCc3ccccc3)c(OCc3cccnc3)c2)SC1=S | < 4.00 |
| C[C@@H](COc1ccc(/C=C2\SC(=S)N(CC(=O)O)C2=O)cc1OCc1ccccc1)c1ccccc1 | 7.15 |
| C[C@H](COc1ccc(/C=C2\SC(=S)N(CC(=O)O)C2=O)cc1O[C@@H](c1ccccc1)C(F)(F)F)c1ccccc1 | 6.26 |
| O=C(O)CN1C(=O)/C(=C/c2ccc(OCc3ccccc3)c(OCc3ccc(F)c(F)c3)c2)SC1=S | < 4.00 |
| O=C(O)CN1C(=O)/C(=C/c2ccc(OCCc3ccc(C(F)(F)F)cc3)c(OCc3ccccc3)c2)SC1=S | 6.74 |
| O=C(O)CN1C(=O)/C(=C/c2ccc(OCCc3ccccc3)c(OCc3ccccc3)c2)SC1=S | 6.30 |
| O=C(O)CN1C(=O)/C(=C/c2ccc(OCCc3ccc(Cl)cc3)c(OCc3ccccc3)c2)SC1=S | 7.30 |
| O=C(O)CN1C(=O)/C(=C/c2ccc(OCCc3ccc(F)cc3)c(OCc3ccccc3)c2)SC1=S | 7.30 |
| CS(=O)(=O)c1ccc(COc2ccc(/C=C3\SC(=S)N(CC(=O)O)C3=O)cc2OCc2ccccc2)cc1 | < 4.00 |
| O=C(O)CN1C(=O)/C(=C/c2ccc(OCc3ccccc3)c(OCc3cccc(C(F)(F)F)c3)c2)SC1=S | < 4.00 |
| C[C@H](Oc1cc(/C=C2\SC(=S)N(CC(=O)O)C2=O)ccc1OC[C@H](C)c1ccccc1)c1ccccc1 | 8.70 |
| O=C(O)CN1C(=O)/C(=C/c2ccc(OCc3ccccc3)cc2)SC1=S | 4.30 |
| NC(=O)C(Oc1cc(/C=C2\SC(=S)N(CC(=O)O)C2=O)ccc1OCCc1ccccc1)c1ccccc1 (centres undefined) | 5.15 |
| O=C(O)CN1C(=O)/C(=C/c2ccc(OCc3c(F)cccc3F)c(OCc3c(F)cccc3F)c2)SC1=S | < 4.00 |
| CC[C@@H](COc1ccc(/C=C2\SC(=S)N(CC(=O)O)C2=O)cc1O[C@H](c1ccccc1)C(F)(F)F)c1ccccc1 | 7.70 |
| C[C@@H](COc1ccc(/C=C2\SC(=S)N(CC(=O)O)C2=O)cc1O[C@H](c1ccccc1)C(F)(F)F)c1ccccc1 | 8.00 |
